The assay deals with T1, DGAT1 (Homo sapiens, UniProt O75907).
T1 construct: expressed in transfected cells; host or cells: CHOK1
T1 sequence (O75907 1-488): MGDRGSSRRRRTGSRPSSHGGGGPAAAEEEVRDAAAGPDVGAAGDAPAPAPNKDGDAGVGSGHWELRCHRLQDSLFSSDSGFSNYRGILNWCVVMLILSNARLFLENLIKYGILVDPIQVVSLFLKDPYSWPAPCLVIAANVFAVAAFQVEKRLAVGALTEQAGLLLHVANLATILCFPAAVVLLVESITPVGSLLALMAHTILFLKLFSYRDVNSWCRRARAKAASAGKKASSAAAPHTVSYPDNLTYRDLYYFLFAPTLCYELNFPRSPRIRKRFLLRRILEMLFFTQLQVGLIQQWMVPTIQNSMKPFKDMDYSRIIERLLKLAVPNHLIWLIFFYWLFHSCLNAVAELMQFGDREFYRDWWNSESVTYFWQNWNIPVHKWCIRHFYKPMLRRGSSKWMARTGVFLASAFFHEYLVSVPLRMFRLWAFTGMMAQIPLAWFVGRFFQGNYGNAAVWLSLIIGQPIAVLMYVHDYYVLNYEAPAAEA
Put plainly: DGAT CHOK1 Cell Assay. The note with it: CHOK1 cells transfected with DGAT1, 14C palmitic acid, 1 hour at 37° C., triglyceride by TLC. It counts as cell-based. The text has this:
Materials for the assay were: petroleum ether (J. T. Baker #9268-22); diethyl ether (Aldrich #30995-8); acetic acid; 1,2-dioleoyl-3-palmitoyl-glycerol (Sigma D-1782); ^[…] Palmitic Acid (56.0 mCi/mmol PerkinElmer Life Sciences # NEC 075H); DMEM/F12 (Gibco #11330-032); fetal bovine serum; L-Glutamine; G418/ml media; DMEM High Glucose (Gibco #11995-065); BSA Fraction V Fatty Acid Free (Roche #100 377); 20×°cm silica gel 60 glass plates (EM Science Plates #5721/7).
CHOK1/DGAT cell culture medium was prepared with DMEM/F12 (Gibco #11330-032), […], and 20 ul G418/ml media. 1,2-dioleoyl-3-palmitoyl-glycerol was prepared by dissolving 10 mg into 1 ml chloroform and stored at −20° C. in 100 μl aliquots. Test compounds were prepared as 10 mM stock solutions in DMSO and store at −20° C. before use. Test dilutions were prepared by five fold serial dilutions over final concentrations.
CHOK1 cells transfected with DGAT1 were diluted in 6 well plates at 2.5×10^5 cells per well and cultured overnight. Cells were then washed twice with PBS. Test compound solutions (10 μl/2 ml media aliquots) in DMEM High Glucose with 0.01% BSA (fatty acid free) were added to cell culture plates at 800 μl per well. ^14C Palmitic acid (0.5 μCi, 5 μl) was added to each well. The plates were incubated for 1 hour at 37° C. After the incubation period, the plates were placed on ice, cells were scraped into media and transferred to microfuge tubes. 400 μl chloroform:methanol (2:1) was added to each tube. Each tube was briefly vortexed by hand, then mechanically vortexed for 10 minutes. Each tube was then centrifuged at 14,000 RPM for 10 minutes at 4° C. and the bottom layer removed and transferred to a new microfuge tube.
Extracted samples were spotted onto TLC plates at 20 μl per lane. The TLC plates were eluted with a solvent mixture of petroleum ether, diethyl ether and acetic acid (80:20:1) and air dried. Trigylceride (TG) spots were visualized by placing in an iodine chamber for several minutes. 1 μl of ^14C palmitic acid (diluted 1:10 in 100% EtOH) was spotted on the TG standard lane (at TG level) as a reference. The TLC plates were wrapped in plastic wrap and placed in a phosphorimager cassette for scanning.
The EC50 values for those compounds tested in this Example were generated using an Excel template, the results of which are shown in Table II: […]
`CC(C)N(NC(=O)c1ccccc1)C(=O)COc1ccc(F)cc1-c1ccc(F)cc1` [Example 1, benzoic acid N′-[2-(5,4′-difluoro-biphenyl-2-yloxy)-acetyl]-N′-isopropyl-hydrazide]: the EC50 (commonly the concentration needed to bring the measured effect to its halfway point) was 8300 nM.
Molecule `CC(C)N(NC(=O)c1ccccc1)C(=O)COc1ccc(F)cc1-c1ccccc1Cl` [Example 2, benzoic acid N′-[2-(2′-chloro-5-fluoro-biphenyl-2-yloxy)-acetyl]-N′-isopropyl-hydrazide] yielded an EC50 of 3100 nM.
In turn, `Cc1ccccc1-c1cc(F)ccc1OCC(=O)N(NC(=O)c1ccccc1)C(C)C` [Example 3, benzoic acid N′-[2-(5-fluoro-2′-methyl-biphenyl-2-yloxy)-acetyl]-N′-isopropyl-hydrazide] came in with an EC50 of 1020 nM.
The value for `COc1ccccc1-c1cc(F)ccc1OCC(=O)N(NC(=O)c1ccccc1)C(C)C` [Example 4, benzoic acid N′-[2-(5-fluoro-2′-methoxy-biphenyl-2-yloxy)-acetyl]-N′-isopropyl-hydrazide] was 1810 nM.
`CC(C)N(NC(=O)c1ccccc1)C(=O)COc1ccc(F)cc1-c1ccccc1F` [Example 5, benzoic acid N′-[2-(5,2′-difluoro-biphenyl-2-yloxy)-acetyl]-N′-isopropyl-hydrazide] yielded an EC50 of 2210 nM.
`CC(C)N(NC(=O)c1ccccc1)C(=O)COc1ccc(F)cc1-c1cccc(F)c1` [Example 9, benzoic acid N′-[2-(5,3′-difluoro-biphenyl-2-yloxy)-acetyl]-N′-isopropyl-hydrazide] had an EC50 of 3780 nM.
Molecule `CC(C)N(NC(=O)c1ccccc1)C(=O)COc1ccc(F)cc1-c1cccc(Cl)c1` [Example 10] yielded an EC50 of 910 nM.
The figure for `CC(C)N(NC(=O)c1ccccc1)C(=O)COc1ccc(F)cc1-c1ccccc1` [Example 11, benzoic acid N′-[2-(5-fluoro-biphenyl-2-yloxy)-acetyl]-N′-isopropyl-hydrazide] is 1850 nM; for `CC(C)c1cccc(-c2cc(F)ccc2OCC(=O)N(NC(=O)c2ccccc2)C(C)C)c1` [Example 12, benzoic acid N′-[2-(5-fluoro-3′-isopropyl-biphenyl-2-yloxy)-acetyl]-N′-isopropyl-hydrazide] it is 1010 nM; for `CSc1ccccc1-c1cc(F)ccc1OCC(=O)N(NC(=O)c1ccccc1)C(C)C` [Example 13, benzoic acid N′-[2-(5-fluoro-2′-methylsylfanyl-biphenyl-2-yloxy)-acetyl]-N′-isopropyl-hydrazide] it is 310 nM.
As to `CC(C)N(NC(=O)c1ccccc1)C(=O)COc1ccc(F)cc1-c1ccccc1[N+](=O)[O-]` [Example 14, benzoic acid N′-[2-(5-fluoro-2′-nitro-biphenyl-2-yloxy)-acetyl]-N′-isopropyl-hydrazide], a half-maximal response (EC50) required 230 nM.
The figure for `CC(C)Oc1ccccc1-c1cc(F)ccc1OCC(=O)N(NC(=O)c1ccccc1)C(C)C` [Example 15, benzoic acid N′-[2-(5-fluoro-2′-isopropoxy-biphenyl-2-yloxy)-acetyl]-N′-isopropyl-hydrazide] is 4860 nM; for `CCc1ccccc1-c1cc(F)ccc1OCC(=O)N(NC(=O)c1ccccc1)C(C)C` [Example 16, benzoic acid N′-[2-(2′-ethyl-5-fluoro-biphenyl-2-yloxy)-acetyl]-N′-isopropyl-hydrazide] it is 216 nM; for `CCCOc1ccccc1-c1cc(F)ccc1OCC(=O)N(NC(=O)c1ccccc1)C(C)C` [Example 17, benzoic acid N′-[2-(5-fluoro-2′-propoxy-biphenyl-2-yloxy)-acetyl]-N′-isopropyl-hydrazide] it is 2170 nM.
`COC(=O)c1ccccc1-c1cc(F)ccc1OCC(=O)N(NC(=O)c1ccccc1)C(C)C` [Example 18, benzoic acid N′-[2-(2′-methoxycarbonyl-5-fluoro-biphenyl-2-yloxy)-acetyl]-N′-isopropyl-hydrazide]: the midpoint of the response, the EC50, lay at 2690 nM.
The value for `Cc1cccc(-c2cc(F)ccc2OCC(=O)N(NC(=O)c2ccccc2)C(C)C)c1C` [Example 19, benzoic acid N′-[2-(2′,3′-dimethyl-5-fluoro-biphenyl-2-yloxy)-acetyl]-N′-isopropyl-hydrazide] was 1300 nM; that for `CC(C)N(NC(=O)c1ccccc1)C(=O)COc1ccc(F)cc1-c1ccccc1OC(F)(F)F` [Example 20, benzoic acid N′-[2-(5-fluoro-2′-trifluoromethoxy-biphenyl-2-yloxy)-acetyl]-N′-isopropyl-hydrazide] was 328 nM; that for `CCOc1ccccc1-c1cc(F)ccc1OCC(=O)N(NC(=O)c1ccccc1)C(C)C` [Example 21, benzoic acid N′-[2-(2′-ethoxy-5-fluoro-biphenyl-2-yloxy)-acetyl]-N′-isopropyl-hydrazide] was 1340 nM.
Turning to `CC(C)c1ccccc1-c1cc(F)ccc1OCC(=O)N(NC(=O)c1ccccc1)C(C)C` [Example 22, benzoic acid N′-[2-(5-fluoro-2′-isopropyl-biphenyl-2-yloxy)-acetyl]-N′-isopropyl-hydrazide], the midpoint of the response, the EC50, lay at 380 nM.
The figure for `CC(C)N(NC(=O)c1ccccc1)C(=O)COc1ccc(F)cc1-c1ccc(F)cc1F` [Example 24, benzoic acid N′-[2-(5,2′,4′-trifluoro-biphenyl-2-yloxy)-acetyl]-N′-isopropyl-hydrazide] is 2930 nM.
The value for `Cc1cc(F)ccc1-c1cc(F)ccc1OCC(=O)N(NC(=O)c1ccccc1)C(C)C` [Example 25, benzoic acid N′-[2-(5,4′-difluoro-4′-methyl-biphenyl-2-yloxy)-acetyl]-N′-isopropyl-hydrazide] was 1370 nM; that for `CCc1ccccc1-c1cc(C)ccc1OCC(=O)N(NC(=O)c1ccccc1)C(C)C` [Example 26, benzoic acid N′-[2-(2′-ethyl-5-methyl-biphenyl-2-yloxy)-acetyl]-N′-isopropyl-hydrazide] was 880 nM; that for `CCc1ccccc1-c1cc(F)c(F)cc1OCC(=O)N(NC(=O)c1ccccc1)C(C)C` [Example 27, benzoic acid N′-[2-(2′-ethyl-4,5-difluoro-biphenyl-2-yloxy)-acetyl]-N′-isopropyl-hydrazide] was 2100 nM.
The figure for `CCc1ccccc1-c1cc(F)cc(F)c1OCC(=O)N(NC(=O)c1ccccc1)C(C)C` [Example 28, benzoic acid N′-[2-(2′-ethyl-3,5-difluoro-biphenyl-2-yloxy)-acetyl]-N′-isopropyl-hydrazide] is 296 nM; for `CCc1ccccc1-c1cc(C#N)ccc1OCC(=O)N(NC(=O)c1ccccc1)C(C)C` [Example 29, benzoic acid N′-[2-(5-cyano-2′-ethyl-biphenyl-2-yloxy)-acetyl]-N′-isopropyl-hydrazide] it is 1370 nM.
`CCc1ccccc1-c1cc(F)ccc1OCC(=O)N(NC(=O)c1ccc(OCCOC)cc1)C(C)C` [Example 30, 4-(2-methoxy-ethoxy)-benzoic acid N′-[2-(5-fluoro-2′-ethyl-biphenyl-2-yloxy)-acetyl]-N′-isopropyl hydrazide] showed a concentration giving a half-maximal response (EC50) of 1830 nM.
As to `Cc1ccc(OCC(=O)N(NC(=O)c2ccccc2)C(C)C)c(-c2ccccc2OC(F)(F)F)c1` [Example 31], the EC50 worked out at 776 nM.
The value for `CC(C)N(NC(=O)c1ccccc1)C(=O)COc1cc(F)c(F)cc1-c1ccccc1OC(F)(F)F` [Example 32, benzoic acid N′-[2-(4,5-difluoro-2′-trifluoromethoxy-biphenyl-2-yloxy)-acetyl]-N′-isopropyl hydrazide] was 938 nM; that for `CC(C)N(NC(=O)c1ccccc1)C(=O)COc1c(F)cc(F)cc1-c1ccccc1OC(F)(F)F` [Example 33, benzoic acid N′-[2-(3,5-difluoro-2′-trifluoromethoxy-biphenyl-2-yloxy)-acetyl]-N′-isopropyl hydrazide] was 356 nM.

For the origin of these results see US7317125B2 (Hoffman-La Roche Inc., priority 2005, dated 2008).
